Results as given in ChEMBL document CHEMBL5634100, “Novel spiro[pyrrolidine-2,3'-quinoline]-2'-one derivatives containing piperazine fragment as potential chitin synthase inhibitors and antifungal agents: Design, synthesis and biological evaluation” (Eur J Med Chem, 2023).
Converted amounts (≈) assume the structure as drawn.

Tests used:
[1] = system: Candida tropicalis; experiment: Inhibition of Candida tropicalis ATCC 750 chitin synthase using UDP-GlcNAc as substrate at 300 ug/ml by TMB based microplate analyzer relative to control; settings: dose 300.0 µg/ml
[2] = system: Candida albicans; experiment: Antimicrobial activity against Candida albicans ATCC 76615 incubated for 24 hrs by two fold serial dilution method; format: functional
[3] = system: Aspergillus fumigatus; experiment: Antimicrobial activity against Aspergillus fumigatus GIMCC 3.19 incubated for 24 hrs by two fold serial dilution method; format: functional
[4] = system: Aspergillus flavus; experiment: Antimicrobial activity against Aspergillus flavus ATCC 16870 incubated for 24 hrs by two fold serial dilution method; format: functional
[5] = system: Cryptococcus neoformans; experiment: Antimicrobial activity against Cryptococcus neoformans ATCC 32719 incubated for 24 hrs by two fold serial dilution method; format: functional
[6] = system: Aspergillus flavus; experiment: Antimicrobial activity against Fluconazole-resistant Aspergillus flavus ATCC 16870R incubated for 24 hrs by two fold serial dilution method; format: functional
[7] = system: Candida albicans; experiment: Antimicrobial activity against fluconazole-resistant Candida albicans ATCC 76615R incubated for 24 hrs by two fold serial dilution method; format: functional
[8] = system: Cryptococcus neoformans; experiment: Antimicrobial activity against Fluconazole-resistant Cryptococcus neoformans ATCC 32719R incubated for 24 hrs by two fold serial dilution method; format: functional
[9] = system: Aspergillus fumigatus; experiment: Antimicrobial activity against Fluconazole-resistant Aspergillus fumigatus GIMCC 3.19R incubated for 24 hrs by two fold serial dilution method; format: functional
[10] = system: Aspergillus fumigatus; experiment: Antimicrobial activity against Aspergillus fumigatus GIMCC 3.19 assessed as inhibition of cell wall synthesis in presence of sorbitol; format: functional
[11] = Inhibition of Candida tropicalis ATCC 750 chitin synthase using UDP-GlcNAc as substrate by TMB based microplate analyzer
[12] = system: Candida albicans; experiment: Antimicrobial activity against micafungin-resistant Candida albicans ATCC 76615R incubated for 24 hrs by two fold serial dilution method; format: functional
[13] = system: Candida albicans; experiment: Antimicrobial activity against Candida albicans ATCC 76615 assessed as inhibition of cell wall synthesis in presence of sorbitol; format: functional
[14] = system: Cryptococcus neoformans; experiment: Antimicrobial activity against Cryptococcus neoformans ATCC 32719 assessed as inhibition of cell wall synthesis in presence of sorbitol; format: functional
[15] = system: Aspergillus flavus; experiment: Antimicrobial activity against Aspergillus flavus ATCC 16870 assessed as inhibition of cell wall synthesis in presence of sorbitol; format: functional

Compound | inhibition [1] | MIC [2] | MIC [3] | MIC [4] | MIC [5] | MIC [6] | MIC [7] | MIC [8] | MIC [9] | MIC [10] | IC50 [11] | MIC [12] | MIC [13] | MIC [14] | MIC [15]
CCc1ccc(C(=O)N2CCN(CC(=O)N3CCCC34Cc3ccccc3NC4=O)CC2)cc1 (stereo not drawn) | 52.8% | 32 µg/mL (≈ 69.5 µM) | 64 µg/mL (≈ 139 µM) | 128 µg/mL (≈ 278 µM) | 32 µg/mL (≈ 69.5 µM) |  |  |  |  |  |  |  |  |  | 
OC(Cn1cncn1)(Cn1cncn1)c1ccc(F)cc1F [FLUCONAZOLE] |  | 4 µg/mL (≈ 13.1 µM) | 4 µg/mL (≈ 13.1 µM) | 8 µg/mL (≈ 26.1 µM) | 8 µg/mL (≈ 26.1 µM) | > 256 µg/mL | > 256 µg/mL | > 256 µg/mL | > 256 µg/mL |  |  |  |  |  | 
O=C(c1ccccc1I)N1CCN(CC(=O)N2CCCC23Cc2ccccc2NC3=O)CC1 (stereo not drawn) | 54.2% | 8 µg/mL (≈ 14.3 µM) | 16 µg/mL (≈ 28.7 µM) | 16 µg/mL (≈ 28.7 µM) | 32 µg/mL (≈ 57.3 µM) |  |  |  |  |  |  |  |  |  | 
O=C(c1ccccc1Cl)N1CCN(CC(=O)N2CCCC23Cc2ccccc2NC3=O)CC1 (stereo not drawn) | 61.4% | 16 µg/mL (≈ 34.3 µM) | 16 µg/mL (≈ 34.3 µM) | 16 µg/mL (≈ 34.3 µM) | 32 µg/mL (≈ 68.5 µM) |  |  |  |  |  |  |  |  |  | 
Cc1cccc(C(=O)N2CCN(CC(=O)N3CCCC34Cc3ccccc3NC4=O)CC2)c1 (stereo not drawn) | 49.4% | 16 µg/mL (≈ 35.8 µM) | 32 µg/mL (≈ 71.7 µM) | 32 µg/mL (≈ 71.7 µM) | 64 µg/mL (≈ 143 µM) |  |  |  |  |  |  |  |  |  | 
COc1cccc(C(=O)N2CCN(CC(=O)N3CCCC34Cc3ccccc3NC4=O)CC2)c1 (stereo not drawn) | 50.7% | 32 µg/mL (≈ 69.2 µM) | 32 µg/mL (≈ 69.2 µM) | 64 µg/mL (≈ 138 µM) | 128 µg/mL (≈ 277 µM) |  |  |  |  |  |  |  |  |  | 
O=C(c1ccccc1)N1CCN(CC(=O)N2CCCC23Cc2ccccc2NC3=O)CC1 (stereo not drawn) | 47% | 16 µg/mL (≈ 37 µM) | 32 µg/mL (≈ 74 µM) | 32 µg/mL (≈ 74 µM) | 64 µg/mL (≈ 148 µM) |  |  |  |  |  |  |  |  |  | 
O=C(c1ccc(F)cc1)N1CCN(CC(=O)N2CCCC23Cc2ccccc2NC3=O)CC1 (stereo not drawn) | 76.7% | 4 µg/mL (≈ 8.88 µM) | 8 µg/mL (≈ 17.8 µM) | 8 µg/mL (≈ 17.8 µM) | 16 µg/mL (≈ 35.5 µM) | 64 µg/mL (≈ 142 µM) | 64 µg/mL (≈ 142 µM) | 64 µg/mL (≈ 142 µM) | 64 µg/mL (≈ 142 µM) | 256 µg/mL | 130 µM | 64 µg/mL (≈ 142 µM) | 64 µg/mL | 128 µg/mL | 64 µg/mL
